Results as given in patent publication US10265378B2, “Combination therapy for head and neck cancer” (Cornell University, priority 2014, dated 2019).

Tests used:
[1] = test system: GO categories in mouse tongue; test: Gene ontology (GO) analysis of RNA-Seq data; assay type: in vivo; conditions: compared to the 4-NQO group
Method: Gene ontology (GO) analysis. Gene ontology (GO) analysis (p-value cutoff: 0.00001), using the ConsensusPathDB online tool, was conducted on the Gene Ontology level 3 of the “Biological Process” domain that has predefined, functional sets for enrichment analysis with default parameter settings.

[2] = test system: β-catenin; test: Immunohistochemistry of tongue epithelium: β-catenin; assay type: in vivo, mouse; conditions: compared to the 4-NQO group; antibody staining
Method: (§1) Immunohistochemistry. Paraffin embedded tongue sections were stained with various antibodies (supporting information).
(§2) Immunohistochemistry. Paraffin-embedded sections (from two to four mice per group) were deparaffinized and rehydrated, and antigen retrieval was performed using an antigen unmasking solution (Vector Laboratories, H-3300). After quenching endogenous peroxidase with 3% H2O2, the tissue sections were blocked with the blocking reagent (from the M.O.M. kit from Vector Laboratories for 4-HNE) or 10% goat serum (Vector Laboratories). Then, tissue sections were incubated with a 4-HNE antibody (1:700; mouse monoclonal antibody; Abcam, ab48506), a β-catenin antibody (1:400; rabbit polyclonal antibody; Abcam, ab6302), or a MMP9 antibody (1:70; rabbit polyclonal antibody; Abcam, ab38898), respectively, overnight at 4° C. The sections were then incubated with secondary antibodies (1:200, anti-mouse IgG from the M.O.M kit for 4-1-INE; ready-to-use anti-rabbit IgG from the Invitrogen SuperPicture kit for β-catenin and MMP9). As a negative control, sections were stained without incubation with primary antibodies. The signals were visualized based on a peroxidase detection mechanism with 3,3-diaminobenzidine (DAB) used as the substrate. Four to five representative areas of each mouse tongue section from two to four mice per group were photographed and analyzed.

[3] = Consumption of drug containing drinking water and diet; assay type: in vivo, mouse; conditions: 4-NQO treated mice, 15 week post 4-NQO treatment
Description: Drug treatments reduce tongue tumor development. All of the mice tolerated the 10 week 4-NQO treatment, and almost all of the mice survived the 15 week post 4-NQO treatment period (A). We determined that the CD1530 in the regular drinking water was stable for at least 7 days at room temperature by HPLC analysis (FIG. 7); thus, we decided to use drinking water as a delivery method because this method is effective and less laborious.

[4] = test system: tongue lesions (4-NQO induced oral cavity carcinogenesis); test: 4-NQO mouse oral cavity carcinogenesis model: gross tongue lesion number and severity
[5] = test system: mouse tongue mRNA transcriptome; test: RNA-Seq analysis of the mRNA transcriptome of mouse tongues; assay type: in vivo; conditions: compared to the 4-NQO group
Method: RNA-Seq analysis of the mRNA transcriptome. One part of each mouse tongue (same position on each mouse tongue) was snap frozen in liquid N2 and stored at −70° C. until total RNA extraction. Total tissue RNA was extracted and subjected to Next-Generation Sequencing (RNA-Seq) at the Genomics Resources Core Facility, Weill Cornell Medical College. Bioinfomatics analyses were performed using the Tophat and Cufflink software. (supporting information).
RNA-Seq analysis of mRNA transcriptome. […] The GEO Accession number is GSE54246; embargoed until publication.

[6] = test system: IL-6; test: Immunohistochemistry of tongue epithelium: IL-6; assay type: in vivo, mouse; conditions: compared to the 4-NQO group; antibody staining
Description: (§3) The tongues were fixed, embedded in paraffin, and sectioned. Then the tissue sections were stained with various antibodies (magnification, 200×). Four to five representative areas of each tongue section from two to four mice/group were photographed and analyzed (FIGS. 12A and 12B). Interleukin-6 (IL-6) is a multifunctional cytokine that is involved in the regulation of immune responses and cellular functions. IL-6 levels are enhanced in human oral squamous cell carcinoma and IL-6 is considered a bad prognostic factor in this cancer (Expert Opin Ther Targets. 2013 January; 17(1):53-9). IL-6 protein was detected primarily in the basal layer of tongue epithelium in the UNT samples (FIG. 12A, arrows), but in the 4-NQO treated samples we observed both an increase in the protein level and an expansion of IL-6 signal to the suprabasal layers of the tongue epithelium (FIG. 12A).

[7] = test system: pathways (Reactome, KEGG, MouseCyc) in mouse tongue; test: Pathway enrichment analysis (ConsensusPathDB) of RNA-Seq data
Method: RNA-Seq analysis of mRNA transcriptome. Representative tongue samples were chosen for the RNA-Seq analysis: untreated (n=5), 4-NQO treatment group (n=3), 4N+B (n=4), 4N+C (n=4), and 4N+B+C (n=5). The extraction of total cellular RNA from mouse tissues was carried out using the RNeasy kit (Qiagen). Subsequent RNA preparation steps were carried out at the Genomics Resources Core Facility of WCMC. The measurement of RNA integrity was determined using the Agilent 2100 BioAnalyzer (Agilent Technologies). Samples with RNA integrity number (RIN) values of 10 were used to construct cDNA libraries. mRNA was purified by using pre-prepared Sera-mag Magnetic Oligo(dT) Beads from Illumina Inc. (SanDiego, Calif.), subjected to thermal fragmentation, and reverse transcribed to first strand cDNA. Following the removal of mRNA strands by RNaseH, first strand cDNAs were used as templates to produce double strand cDNAs, and the overhangs resulting from fragmentation were repaired to blunt ends. An ‘A’ base was added to the 3′ end of cDNAs and subsequently the cDNAs were ligated to Illumina paired end (PE) adaptors that have a single ‘T’ base overhang at their 3′ end. The cDNA-adaptor libraries were purified and enriched by 15 cycles of PCR. The enriched libraries were hybridized to a flow cell and amplified, resulting in ultra-high density flow cells with millions of clusters, each containing about 1,000 copies of the templates. The double stranded cDNA-adaptors were denatured and converted into single strand DNA, and then the template cDNAs were amplified one more time isothermally to produce surface-bound colonies. The clonal DNA clusters were linearized, free 3′ OH ends blocked, denatured, hybridized to sequencing primers, and sequenced. The sequencing was conducted by running 4 samples per lane with 51 pair-end cycles on the HISeq2000/1000. The Sequencing-by-Synthesis process used reversible terminators and a DNA polymerase modified to accept reversible terminator nucleotides. After each synthesis cycle the fluorescence of clusters was imaged with high sensitivity. Then the sequencing images were analyzed in three steps, image analysis, base calling, and sequence analysis. The Tophat software was used to align raw sequencing reads against the UCSC mm9 mouse reference genome, and Cufflinks software was employed to measure transcript abundances in the unit of fragments per kilobase of exon model per million mapped reads (FPKM), as well as to perform statistical analysis on the changes in gene expression. The heat maps for genes of interest were generated by R package software.

[8] = Mouse serum triglyceride level measurements; assay type: in vivo; conditions: treatment for 15 weeks; compared to the UNT group
Method: Mouse serum triglyceride level measurements. Blood samples from the mice were obtained from mouse tails. The analysis of serum triglyceride levels was carried out at the Laboratory of Comparative Pathology of the Memorial Sloan-Kettering Cancer Center. UNT (n=4); 4-NQO (n=3); 4N+B (n=4); 4N+C (n=3), and 4N+B+C (n=4).

[9] = test system: MCT4; test: Immunohistochemistry of tongue epithelium: MCT4; assay type: in vivo, mouse; conditions: compared to the 4-NQO group; antibody staining
Description: as §3

[10] = test system: 4-hydroxynonenal (4-HNE), marker of oxidative stress; test: Immunohistochemistry of tongue epithelium: 4-HNE; assay type: in vivo, mouse; conditions: compared to the 4-NQO group; antibody staining
Method: as §1, §2

[11] = down-regulated vs. 4-NQO group, KEGG
[12] = down-regulated vs. 4-NQO group, Reactome
[13] = upregulated vs. 4-NQO group, KEGG

C=C(c1ccc(C(=O)O)cc1)c1cc2c(cc1C)C(C)(C)CCC2(C)C [bexarotene]
GO categories related to cell cycle, DNA replication, and mitosis [1]: most under-expressed
β-catenin protein levels in the tongue epithelium [2]: lower β-catenin protein levels
consumption of drug containing diet vs regular diet [3]: comparable
number of tongue lesions (gross tongue lesion multiplicity) ([4]; C57BL/6 female mice, 4-NQO 10 weeks, then drug in 15 week post 4-NQO period, bexarotene 300 mg/kg diet, CD1530 […]100 ml drinking water, 4-NQO group 5.9±3.2): 5.3±1.4
average severity of tongue lesions (grade 0-4) ([4]; same model, 4-NQO group 2.8±0.8): 1.9±1.2
lesions at grade 1 ([4]; same model, 4-NQO group all lesions at or greater than grade 2): 50%
transcript levels of DNA replication genes (MCM 2-7 and 10, DNA2, LIG1, ORC1, POLA1, PRIM2) [5]: significantly lower transcript levels of the majority of these genes
number of genes with decreased transcript levels ([5]; p<0.05): 614
number of genes with increased transcript levels ([5]; p<0.05): 436
number of genes with significantly different transcript levels ([5]; p<0.05): 1050
IL-6 protein levels in the tongue epithelium [6]: lower IL-6 protein levels
candidates contained, pathway Cell cycle-Mus musculus (mouse) [7, 11]: 19 (15.0%)
candidates contained, pathway Complement and coagulation cascades-Mus musculus (mouse) [7, 11]: 21 (27.6%)
candidates contained, pathway Retinol metabolism-Mus musculus (mouse) [7, 11]: 14 (17.7%)
candidates contained, pathway Activation of ATR in response to replication stress [7, 12]: 10 (26.3%)
candidates contained, pathway Activation of the pre-replicative complex [7, 12]: 9 (31.0%)
candidates contained, pathway Cell Cycle [7, 12]: 46 (15.1%)
candidates contained, pathway Cell Cycle Checkpoints [7, 12]: 16 (20.8%)
candidates contained, pathway Cell Cycle, Mitotic [7, 12]: 44 (16.4%)
candidates contained, pathway Common Pathway [7, 12]: 6 (46.2%)
candidates contained, pathway DNA Replication [7, 12]: 34 (21.7%)
candidates contained, pathway DNA Replication Pre-Initiation [7, 12]: 10 (27.8%)
candidates contained, pathway Formation of Fibrin Clot (Clotting Cascade) [7, 12]: 10 (29.4%)
candidates contained, pathway G1/S Transition [7, 12]: 12 (19.4%)
candidates contained, pathway G2/M Checkpoints [7, 12]: 13 (28.9%)
candidates contained, pathway HDL-mediated lipid transport [7, 12]: 7 (41.2%)
candidates contained, pathway Hemostasis [7, 12]: 37 (12.3%)
candidates contained, pathway Lipid digestion, mobilization, and transport [7, 12]: 11 (22.4%)
candidates contained, pathway Lipoprotein metabolism [7, 12]: 11 (35.5%)
candidates contained, pathway M Phase [7, 12]: 22 (22.2%)
candidates contained, pathway M/G1 Transition [7, 12]: 10 (27.8%)
candidates contained, pathway Metabolism of amino acids and derivatives [7, 12]: 21 (16.9%)
candidates contained, pathway Mitotic G1-G1/S phases [7, 12]: 14 (19.2%)
candidates contained, pathway Mitotic M-M/G1 phases [7, 12]: 32 (23.7%)
candidates contained, pathway Mitotic Prometaphase [7, 12]: 21 (22.1%)
candidates contained, pathway Phenylalanine and tyrosine catabolism [7, 12]: 5 (62.5%)
candidates contained, pathway Platelet degranulation [7, 12]: 15 (23.4%)
candidates contained, pathway Response to elevated platelet cytosolic Ca2+ [7, 12]: 15 (21.4%)
candidates contained, pathway Calcium signaling pathway-Mus musculus (mouse) [7, 13]: 15 (8.4%)
candidates contained, pathway Gastric acid secretion-Mus musculus (mouse) [7, 13]: 10 (13.7%)
serum triglyceride levels [8]: did not change serum triglyceride levels significantly
MCT4 protein levels in the tongue epithelium [9]: lower MCT4 protein levels
4-HNE levels in tongue samples [10]: lower
